Results taken from the supplement of paper PMC10307832.

How the values were obtained:
Experiment in all cases: relative viability (nuclei count vs DMSO), 5 days (fraction); higher = more cells survive
[1] = compound: C/C(=N\NC(=S)N1CCC1)/C2=CC=CC=N2 + CC(=O)c1c(C)c2cnc(Nc3ccc(N4CCNCC4)cn3)nc2n(C2CCCC2)c1=O [Palbociclib] (partner 0.5 µM)
Summary of the method: (§1)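 Nuclei were stained with Hoechst during a one-step fixation (final 0.05% Triton X-100, 1% formaldehyde, 1 ug/ml Hoechst) carried out 5 days after dosing, then counted on 4× images. The cells, lung cancer lines in 1536-well plates, had been dosed by pin tool the day after seeding with one drug alone or a fixed anchor-drug dose plus five library-drug doses (not always all listed) in √10 steps. Relative viability is the nuclei count in treated wells divided by that in vehicle wells, and each value is the median of duplicate plates.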

[2] = compound: C/C(=N\NC(=S)N1CCC1)/C2=CC=CC=N2 + Nc1nc2[nH]cc(CCc3ccc(C(=O)N[C@@H](CCC(=O)O)C(=O)O)cc3)c2c(=O)[nH]1 [Pemetrexed] (partner 0.2 µM)
Summary of the method: as §1

[3] = compound: C/C(=N\NC(=S)N1CCC1)/C2=CC=CC=N2 + Cc1nc(NC(=O)N2CCC[C@H]2C(N)=O)sc1-c1ccnc(C(C)(C)C(F)(F)F)c1 [Alpelisib] (partner 2 µM)
Summary of the method: as §1

[4] = compound: C/C(=N\NC(=S)N1CCC1)/C2=CC=CC=N2 + O=C(c1cc(Cc2n[nH]c(=O)c3ccccc23)ccc1F)N1CCN(C(=O)C2CC2)CC1 [Olaparib] (partner 8 µM)
Summary of the method: as §1

Cell Line	relative viability ([1]; first compound 0.05 µM)	relative viability ([1]; first compound 0.1581 µM)	relative viability ([1]; first compound 0.5 µM)	relative viability ([1]; first compound 1.581 µM)	relative viability ([1]; first compound 5 µM)	relative viability ([2]; first compound 0.05 µM)	relative viability ([2]; first compound 0.1581 µM)	relative viability ([2]; first compound 0.5 µM)	relative viability ([2]; first compound 1.581 µM)	relative viability ([2]; first compound 5 µM)	relative viability ([3]; first compound 0.05 µM)	relative viability ([3]; first compound 0.1581 µM)	relative viability ([3]; first compound 0.5 µM)	relative viability ([3]; first compound 1.581 µM)	relative viability ([3]; first compound 5 µM)	relative viability ([4]; first compound 0.05 µM)	relative viability ([4]; first compound 0.1581 µM)	relative viability ([4]; first compound 0.5 µM)	relative viability ([4]; first compound 1.581 µM)	relative viability ([4]; first compound 5 µM)
LXF-289	0.252	0.6	0.189	0.143	0.13	0.254	0.203	0.199	0.17	0.104	0.539	0.307	0.278	0.147	0.141	0.382	0.647	0.175	0.176	0.0913
NCI-H23	0.143	0.174	0.168	0.133	0.164	0.16	0.175	0.203	0.137	0.19	0.128	0.148	0.141	0.128	0.155	0.129	0.101	0.0966	0.0889	0.111
NCI-H322M	0.345	0.382	0.488	0.379	0.439	0.327	0.391	0.556	0.327	0.404	0.318	0.844	0.186	0.258	0.254	0.334	0.334	0.398	0.398	0.467
NCI-H358	0.0943	0.103	0.106	0.07	0.0834	0.114	0.107	0.109	0.0963	0.12	0.196	0.174	0.142	0.118	0.155	0.0853	0.0833	0.0714	0.0722	0.067
NCI-H441	0.13	0.112	0.124	0.0967	0.105	0.16	0.162	0.129	0.154	0.118	0.159	0.173	0.174	0.166	0.146	0.167	0.136	0.125	0.113	0.138
NCI-H460	0.018	0.0146	0.0188	0.0169	0.0139	0.0583	0.0469	0.0644	0.0399	0.014	0.0117	0.0186	0.0138	0.0126	0.0076	0.0648	0.0442	0.0577	0.0429	0.0274
NCI-H520	0.119	0.139	0.121	0.114	0.151	0.128	0.16	0.145	0.122	0.146	0.159	0.144	0.124	0.138	0.154	0.122	0.131	0.125	0.106	0.143
NCI-H647	0.0551	0.0636	0.0877	0.0726	0.0666	0.136	0.111	0.114	0.0953	0.0773	0.135	0.0873	0.114	0.0898	0.0916	0.0792	0.0588	0.0743	0.0667	0.0631
NCI-H650	0.143	0.197	0.146	0.144	0.128	0.179	0.245	0.201	0.166	0.131	0.187	0.252	0.271	0.225	0.169	0.135	0.151	0.147	0.114	0.138
NCI-H661	0.284	0.252	0.251	0.231	0.223	0.286	0.278	0.244	0.229	0.223	0.153	0.268	0.145	0.172	0.202	0.244	0.239	0.202	0.243	0.219
NCI-H838	0.161	0.165	0.158	0.129	0.13	0.223	0.186	0.185	0.19	0.186	0.243	0.211	0.189	0.189	0.172	0.184	0.173	0.186	0.159	0.13
NCI-H1355	0.171	0.167	0.165	0.148	0.154	0.195	0.18	0.177	0.189	0.152	0.205	0.545	0.149	0.145	0.156	0.22	0.179	0.171	0.175	0.142
NCI-H1395	0.33	0.333	0.329	0.366	0.381	0.313	0.402	0.322	0.32	0.348	0.4	0.354	0.423	0.354	0.463	0.321	0.285	0.373	0.364	0.39
NCI-H1437	0.183	0.175	0.163	0.129	0.111	0.174	0.169	0.193	0.171	0.126	0.114	0.127	0.0974	0.0875	0.0851	0.226	0.213	0.235	0.143	0.119
NCI-H1651	0.159	0.134	0.129	0.0856	0.0851	0.137	0.111	0.0991	0.0716	0.0806	0.149	0.112	0.138	0.0797	0.0683	0.125	0.117	0.121	0.122	0.0747
NCI-H1666	0.617	0.608	0.564	0.495	0.509	0.532	0.638	0.54	0.442	0.473	0.198	0.208	0.23	0.212	0.224	0.601	0.547	0.479	0.461	0.523

Cell Line	relative viability ([1]; first compound 0.05 µM)	relative viability ([1]; first compound 0.1581 µM)	relative viability ([1]; first compound 0.5 µM)	relative viability ([1]; first compound 1.581 µM)	relative viability ([1]; first compound 5 µM)	relative viability ([2]; first compound 0.05 µM)	relative viability ([2]; first compound 0.1581 µM)	relative viability ([2]; first compound 0.5 µM)	relative viability ([2]; first compound 1.581 µM)	relative viability ([2]; first compound 5 µM)	relative viability ([3]; first compound 0.05 µM)	relative viability ([3]; first compound 0.1581 µM)	relative viability ([3]; first compound 0.5 µM)	relative viability ([3]; first compound 1.581 µM)	relative viability ([3]; first compound 5 µM)	relative viability ([4]; first compound 0.05 µM)	relative viability ([4]; first compound 0.1581 µM)	relative viability ([4]; first compound 0.5 µM)	relative viability ([4]; first compound 1.581 µM)	relative viability ([4]; first compound 5 µM)
NCI-H1734	0.14	0.132	0.169	0.131	0.129	0.17	0.166	0.188	0.152	0.135	0.169	0.185	0.147	0.135	0.151	0.148	0.13	0.15	0.114	0.1
NCI-H1755	0.407	0.452	0.33	0.294	0.303	0.394	0.302	0.273	0.31	0.292	0.471	0.834	0.172	0.201	0.187	0.632	0.858	0.288	0.29	0.224
NCI-H1792	0.426	0.398	0.363	0.272	0.259	0.126	0.0786	0.0748	0.0765	0.0786	0.457	0.373	0.153	0.114	0.085	0.228	0.107	0.0578	0.134	0.101
NCI-H1793	0.191	0.162	0.146	0.155	0.174	0.158	0.162	0.151	0.112	0.136	0.245	0.179	0.169	0.168	0.191	0.255	0.143	0.169	0.123	0.107
NCI-H1915	0.166	0.159	0.138	0.12	0.124	0.128	0.142	0.163	0.133	0.126	0.501	1.08	0.174	0.157	0.143	0.155	0.12	0.127	0.122	0.137
NCI-H1944	0.253	0.3	0.166	0.148	0.129	0.212	0.15	0.133	0.112	0.124	0.669	0.794	0.307	0.191	0.133	0.27	0.426	0.14	0.136	0.138
NCI-H1975	0.105	0.106	0.105	0.11	0.131	0.133	0.144	0.141	0.155	0.145	0.137	0.137	0.123	0.136	0.154	0.111	0.113	0.118	0.111	0.133
NCI-H1993	0.345	0.36	0.349	0.405	0.377	0.382	0.487	0.436	0.405	0.375	0.67	0.57	0.555	0.505	0.489	0.418	0.426	0.355	0.334	0.431
NCI-H2009	0.0949	0.102	0.108	0.112	0.0775	0.0997	0.122	0.134	0.15	0.122	0.113	0.135	0.15	0.164	0.141	0.0968	0.101	0.125	0.154	0.123
NCI-H2023	0.0715	0.0684	0.0648	0.0566	0.086	0.0924	0.0863	0.0863	0.0559	0.0883	0.0758	0.0838	0.0704	0.0784	0.0669	0.0912	0.0578	0.0664	0.0644	0.0565
NCI-H2085	0.275	0.303	0.261	0.279	0.273	0.248	0.264	0.237	0.178	0.244	0.288	0.27	0.314	0.282	0.272	0.307	0.25	0.293	0.281	0.278
NCI-H2087	0.104	0.0945	0.12	0.118	0.0998	0.16	0.181	0.214	0.163	0.119	0.24	0.196	0.246	0.141	0.151	0.123	0.113	0.138	0.144	0.0767
NCI-H2126	0.249	0.34	0.212	0.207	0.209	0.235	0.221	0.212	0.219	0.208	0.327	0.748	0.224	0.218	0.186	0.344	0.889	0.186	0.191	0.17
NCI-H2170	0.37	0.378	0.17	0.131	0.121	0.235	0.208	0.202	0.155	0.116	0.747	0.731	0.177	0.173	0.17	0.487	0.575	0.161	0.124	0.124
NCI-H2228	0.134	0.167	0.127	0.0641	0.315	0.107	0.147	0.116	0.0863	0.121	0.154	0.18	0.227	0.124	0.147	0.125	0.142	0.138	0.115	0.107
NCI-H2347	0.323	0.305	0.282	0.277	0.29	0.33	0.308	0.3	0.27	0.291	0.312	0.254	0.296	0.274	0.352	0.334	0.294	0.298	0.274	0.28
